Tests used:
[1] = pKa of the enolic carbon of the β-diketone ligands; details: β-diketone ligand
Text: (§1) As mentioned earlier, it is necessary to form the enolate of the dicarbonyl compound for complex formation with metal to occur. […] It is usually (by not universally) desirable to stay below pH 9.0 to allow chelate stability under physiological assay conditions.

[2] = pH range of stable chelate formation; type: physicochemical; details: Eu chelate
Text: as §1

Compound: O=C(CC(=O)c1ccc2ccccc2c1)c1cc(F)cc(F)c1 [compound 4]
- pKa for the enolic carbon [1]: ~4.2
- pH above which a stable chelate is formed [2]: > 4.5 pH
